According to patent US10336726B2, “3-methyl-pyrrolidine-2,5-dione derivatives useful as CGRP receptor antagonists” (Eli Lilly and Company, priority 2017, dated 2019):
Like-named read-outs stand apart in the source and are kept apart here.

Key:
[1] = target: T1, hCGRP (human calcitonin gene-related peptide) receptor (Homo sapiens, UniProt O60894+Q16602); assay: Inhibition of cAMP production by CGRP receptor antagonists in SK-N-MC cells (HTRF); format: cell-based; details: 0.8 nM human CGRP challenge, agonist-corrected IC50, mean±SEM, n=11, read-out: Kb measured at human CGRP
T1 construct: Cultured SK-N-MC neuroblastoma cells that endogenously express the hCGRP receptor (ATCC); host or cells: SK-N-MC neuroblastoma cells
T1 sequence (Q16602 23-461): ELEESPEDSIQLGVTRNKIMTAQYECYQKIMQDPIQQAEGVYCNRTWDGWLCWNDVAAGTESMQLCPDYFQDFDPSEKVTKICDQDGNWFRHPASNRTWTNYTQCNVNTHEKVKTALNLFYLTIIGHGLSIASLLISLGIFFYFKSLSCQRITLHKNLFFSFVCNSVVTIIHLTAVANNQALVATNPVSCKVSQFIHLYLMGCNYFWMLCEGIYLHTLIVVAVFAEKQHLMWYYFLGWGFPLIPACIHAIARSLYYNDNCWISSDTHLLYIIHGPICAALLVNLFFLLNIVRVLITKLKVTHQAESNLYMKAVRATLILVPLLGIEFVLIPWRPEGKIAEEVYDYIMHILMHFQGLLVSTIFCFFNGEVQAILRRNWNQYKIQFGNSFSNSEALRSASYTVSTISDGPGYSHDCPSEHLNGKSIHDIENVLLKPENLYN
T1 sequence (O60894 27-148): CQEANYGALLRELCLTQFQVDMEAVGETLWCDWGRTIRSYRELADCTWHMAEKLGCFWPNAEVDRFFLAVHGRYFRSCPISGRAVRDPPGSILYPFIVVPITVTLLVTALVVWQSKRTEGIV
Text: Inhibition of cAMP Production by CGRP Receptor Antagonists
The hCGRP (human calcitonin gene-related peptide) receptor is functionally coupled to the Gas proteins. Stimulation of hCGRP results in an increased synthesis of intracellular cAMP and can be blocked by the addition of receptor antagonists. Receptor activity is thus a reflection of the amount of cAMP present within cells which can be detected using standard in vitro technology.
Cultured SK-N-MC neuroblastoma cells that endogenously express the hCGRP receptor (ATCC) are grown in Eagle's Minimum essential medium (HYCLONE™) supplemented with 10% heat-inactivated Fetal bovine serum (FBS; GIBCO®), Non-Essential Amino Acids (GIBCO®), 1 mM sodium pyruvate, 2 mM L-glutamine, 100 U/mL of penicillin, and 10 μg/mL of streptomycin to about 70% confluency. […]
The amount of intracellular cAMP is quantitated using HTRF technology (Cisbio) as per vendor instructions. […] The HTRF signal is immediately detected using an ENVISION® plate reader (Perkin-Elmer) to calculate the ratio of fluorescence at […]. […] Relative EC50 values are calculated from the top-bottom range of the concentration response curve using a four-parameter logistic curve fitting program (ACTIVITYBASE® v5.3.1.22 or GENEDATA SCREENER® v12.0.4), and Kb values are estimated as agonist-corrected IC50 values using the equation: Kb=(IC50)/[1+([Agonist]/EC50)]. […]

[2] = target: T2, ABCB1, human P-glycoprotein (Pgp) (Homo sapiens, UniProt P08183); assay: In vitro determination of efflux by Pgp; bi-directional transport across MDCKII cells; format: in vitro ADME; details: MDCKII cells expressing human ABCB1, 5 μM substrate, 60 min, B-A/A-B Papp ratios with/without inhibitor
T2 construct: host or cells: MDCKII cells
T2 sequence (P08183 whole entry): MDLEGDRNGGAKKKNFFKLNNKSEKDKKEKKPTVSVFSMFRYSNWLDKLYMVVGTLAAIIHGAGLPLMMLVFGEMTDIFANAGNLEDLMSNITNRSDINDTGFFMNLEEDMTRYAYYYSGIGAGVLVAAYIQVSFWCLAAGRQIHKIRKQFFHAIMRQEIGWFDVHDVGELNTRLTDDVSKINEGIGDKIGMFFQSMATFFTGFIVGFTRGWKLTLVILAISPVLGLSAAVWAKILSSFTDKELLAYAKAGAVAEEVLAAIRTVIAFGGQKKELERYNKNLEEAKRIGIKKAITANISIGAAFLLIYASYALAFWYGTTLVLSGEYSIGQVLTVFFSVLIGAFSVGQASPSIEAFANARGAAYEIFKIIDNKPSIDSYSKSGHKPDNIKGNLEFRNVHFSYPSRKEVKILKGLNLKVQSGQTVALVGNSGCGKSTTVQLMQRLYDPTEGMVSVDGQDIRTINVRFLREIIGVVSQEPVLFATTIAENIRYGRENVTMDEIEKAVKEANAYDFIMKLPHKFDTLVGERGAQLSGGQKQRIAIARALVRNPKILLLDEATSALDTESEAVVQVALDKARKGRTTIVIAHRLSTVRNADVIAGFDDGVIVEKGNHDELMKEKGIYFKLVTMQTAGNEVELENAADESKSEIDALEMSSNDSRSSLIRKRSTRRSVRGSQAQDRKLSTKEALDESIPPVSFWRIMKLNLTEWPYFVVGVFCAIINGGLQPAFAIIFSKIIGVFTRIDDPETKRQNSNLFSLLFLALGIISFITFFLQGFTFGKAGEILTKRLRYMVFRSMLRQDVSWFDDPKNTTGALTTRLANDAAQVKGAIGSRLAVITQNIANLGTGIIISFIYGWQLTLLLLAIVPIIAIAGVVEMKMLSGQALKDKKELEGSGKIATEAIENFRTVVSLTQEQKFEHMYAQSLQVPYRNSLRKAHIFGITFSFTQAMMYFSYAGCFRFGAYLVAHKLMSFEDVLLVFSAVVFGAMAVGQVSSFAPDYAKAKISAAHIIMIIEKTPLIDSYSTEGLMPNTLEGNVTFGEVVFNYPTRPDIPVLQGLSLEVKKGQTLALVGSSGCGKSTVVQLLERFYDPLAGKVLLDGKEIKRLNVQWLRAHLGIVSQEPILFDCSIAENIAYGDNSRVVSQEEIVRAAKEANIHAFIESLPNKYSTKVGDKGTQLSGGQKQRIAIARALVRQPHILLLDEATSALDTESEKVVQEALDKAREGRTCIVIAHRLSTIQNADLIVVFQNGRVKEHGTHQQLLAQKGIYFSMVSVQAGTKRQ
Protocol: In Vitro Determination of Efflux by ABCB1, Human P-Glycoprotein (Pgp)
MDCKII cells stably expressing human wild-type ABCB1 (Pgp) are obtained from the Netherlands Cancer Institute (Amsterdam, The Netherlands). MDCK cells are maintained as described previously (Desai et al., Mol Pharm 10:1249-1261, 2013).
The assay is essentially conducted as described previously (Desai et al., Mol Pharm 10:1249-1261, 2013). Transport is measured in both directions across uninhibited and inhibited cell monolayers using a substrate concentration of 5 μM diluted from a 10 mM DMSO stock solution (final DMSO concentration of 0.05%) and a single 60-min time interval. […] The apparent permeability coefficients (Papp) are estimated as the slope of the mass transported per 60 min relative to the total recovered mass. The basal-to-apical (B-A)/apical-to-basal (A-B) Papp ratios are calculated in the absence or presence of inhibitor in each cell line for net efflux ratio (NER). The NER of the compound of Example 1 for efflux by Pgp is determined to be 1.7.

[3] = In vivo determination of plasma and brain concentrations and unbound brain-to-plasma partition coefficient (Kp,uu,brain) in rats; details: for concentration at 1 h / concentration at 3 h: male, Sprague-Dawley, oral, 10 mg/kg
Protocol: In Vivo Determination of Unbound Brain-to-Plasma Partition Coefficient (Kp,uu,brain) in Rats
Unbound brain-to-plasma partition coefficient (Kp,uu,brain) is one of the key pharmacokinetic parameter for evaluating a compound's ability to cross the blood-brain barrier (BBB) (Hammarlund-Udenaes, M.; Friden, M.; Syvanen, S.; Gupta, A. On the Rate and Extent of Drug Delivery to the Brain. Pharm. Res. 2008, 25 (8), 1737-1750).
Animal studies are performed under protocols approved by the Covance Institutional Animal Care and Use Committee. Male Sprague-Dawley rats weighing 250-350 g are obtained from Harlan Sprague Dawley Inc. (Indianapolis, Ind.). Animals have access to food and water ad libitum before and during the study.
Animals each receive 10 mg/kg of the CGRP receptor antagonist compound of Example 1, administered orally in 10 ml/kg of hydroxyethylcellulose 1% w/v/polysorbate 80 0.25% v/v/Antifoam 1510-US 0.05% v/v/in purified water (probe sonicated).
Three animals per time point are used. […] The blood samples are treated with K3-EDTA anticoagulant, and plasma is obtained by centrifugation at 1600 g for 10 minutes. The brain samples are weighed and homogenized, without perfusion. All samples are stored at −70° C. until analysis by LC-MS/MS to determine the concentration of the compound of Example 1 in plasma and brain at each time point.
Kp,uu,brain is calculated for each time point from the expression below where individual components are derived from a combination of in vitro and in vivo measurements carried out as described above:
[formula] where Ctotal,brain, Cu,brain, Ctotal,plasma and Cu,plasma are total and unbound brain and plasma concentrations, and fu,brain and fu,plasma are fractions unbound in brain and plasma, respectively.

[4] = Rat plasma and brain homogenate protein binding by equilibrium dialysis; format: in vitro ADME
Protocol: Determination of Plasma and Brain Protein Binding:
Rat plasma and brain homogenate protein in vitro binding is determined using equilibrium dialysis, as described elsewhere [Zamek-Gliszczynski et al., J Pharm Sci, 101:1932-1940, 2012]. The results are reported as fraction unbound in plasma (fu,plasma) and brain (fu,brain), which are then utilized to calculate Kp,uu,brain, as described in Table 1. Rat fu,plasma and fu,brain of the compound of Example 1 are determined to be 0.071 and 0.043, respectively.

Kb [1]: 0.57 ± 0.25 nM
net efflux ratio (NER) for efflux by Pgp [2]: 1.7
Unbound brain conc. (Cu,brain) ([3]; 1.0 hr post 10 mg/kg oral dose, male Sprague-Dawley rats, using rat fu,brain 0.043, mean ± SD): 41 ± 15 nM
Unbound brain conc. (Cu,brain) ([3]; 3.0 hr post 10 mg/kg oral dose, male Sprague-Dawley rats, using rat fu,brain 0.043, mean ± SD): 22 ± 5 nM
concentration at 1 h ([3]; rat, brain, 1.0 hr post 10 mg/kg oral dose, mean ± SD, read-out: Total brain conc. (Ctotal,brain)): 962 ± 341 nM
concentration at 1 h ([3]; rat, brain, 1.0 hr post 10 mg/kg oral dose, using rat fu,brain 0.043, mean ± SD, read-out: Unbound brain conc. (Cu,brain)): 41 ± 15 nM
concentration at 3 h ([3]; rat, brain, 3.0 hr post 10 mg/kg oral dose, mean ± SD, read-out: Total brain conc. (Ctotal,brain)): 515 ± 111 nM
concentration at 3 h ([3]; rat, brain, 3.0 hr post 10 mg/kg oral dose, using rat fu,brain 0.043, mean ± SD, read-out: Unbound brain conc. (Cu,brain)): 22 ± 5 nM
concentration at 1 h ([3]; rat, plasma, 1.0 hr post 10 mg/kg oral dose, mean ± SD, read-out: Total plasma conc. (Ctotal,plasma)): 655 ± 183 nM
concentration at 1 h ([3]; rat, plasma, 1.0 hr post 10 mg/kg oral dose, using rat fu,plasma 0.071, mean ± SD, read-out: Unbound plasma conc. (Cu,plasma)): 47 ± 13 nM
concentration at 3 h ([3]; rat, plasma, 3.0 hr post 10 mg/kg oral dose, mean ± SD, read-out: Total plasma conc. (Ctotal,plasma)): 368 ± 127 nM
concentration at 3 h ([3]; rat, plasma, 3.0 hr post 10 mg/kg oral dose, using rat fu,plasma 0.071, mean ± SD, read-out: Unbound plasma conc. (Cu,plasma)): 26 ± 9 nM
Kp uu at 1 h ([3]; rat, brain/plasma, 1.0 hr post 10 mg/kg oral dose, male Sprague-Dawley rats, mean ± SD): 0.89 ± 0.17
Kp uu at 3 h ([3]; rat, brain/plasma, 3.0 hr post 10 mg/kg oral dose, male Sprague-Dawley rats, mean ± SD): 0.93 ± 0.43
fraction unbound in brain (fu,brain) ([4]; rat brain homogenate): 0.043
fraction unbound ([4]; rat plasma, read-out: fraction unbound in plasma (fu,plasma)): 0.071
Compound: Cc1cc(OCc2ccc([C@@H](C)[C@]3(C)CC(=O)NC3=O)cc2)cc(C2CC2)n1 [Example 1, (3S)-3-[(1R)-1-[4-[(2-cyclopropyl-6-methyl-4-pyridyl)oxymethyl]phenyl]ethyl]-3-methyl-pyrrolidine-2,5-dione]
